Earlier results, collected in patent US7713553B2, “Method of manufacture of a liquid pesticide containing copper and a liquid pesticide containing copper” (Genics Inc., priority 2001, dated 2010).

[Cu+2].[OH-].[OH-] [copper hydroxide]
solubility in water: almost insoluble
